This assay deals with Lewis lung carcinoma i.m., BDF1 mice, T/C %. Kind of assay: NCI In Vivo Anticancer Drug Screen. Data for tumor model Lewis Lung Carcinoma (intramuscular) in B6D2F1 (BDF1) mice. The conditions noted are these: schedule: Q01DX011 (ip). The method in brief: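 Transplantable tumour model; readout survival or tumour size; value = treated (T) / vehicle control (C).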

Among the data in PubChem BioAssay AID272 (DTP/NCI, 2004) are T/C values, retold here.

Where “and” joins values, the source holds several entries; their conditions need not be identical. Equal values may be shown once. Records with an inconclusive call do not appear. Starred links: 1 amine or outer side, 2 acyl side, 3 side chain; linkers in the order of their positions; H or OH if unused. Positions of bridges follow the written chain, without caps; N, C: chain ends. Non-standard residues stand in square brackets, D forms with d. Residues, ends and D or L forms follow the SMILES beside them. Chains are numbered I, II in the order given. Actinocin(9to1) = Cc1c2oc3c(C)ccc(C(=O)[*:1])c3nc-2c(C(=O)[*:2])c(N)c1=O; aThr = C[C@H](O)[C@H](N)C(=O)O; NMeV = CN[C@H](C(=O)O)C(C)C; Sar = CNCC(=O)O

For the compound `CC1=Nc2ccccc2/C1=C\c1c(C)[nH]c2ccccc12`, the T/C was 52 % of control (endpoint: mean tumor weight (est.), dose: 25.0 mg/kg/injection, vehicle: saline with Tween-80, higher = larger tumour); 68 % of control (endpoint: mean tumor weight (est.), dose: 50.0 mg/kg/injection, vehicle: saline with Tween-80, higher = larger tumour); 29 % of control (endpoint: mean tumor weight (est.), dose: 100.0 mg/kg/injection, vehicle: saline with Tween-80, higher = larger tumour); 104 % of control (endpoint: median survival time, dose: 25.0 mg/kg/injection, vehicle: saline with Tween-80, higher = longer survival); 93 % of control (endpoint: median survival time, dose: 50.0 mg/kg/injection, vehicle: saline with Tween-80, higher = longer survival); 100 % of control (endpoint: median survival time, dose: 100.0 mg/kg/injection, vehicle: saline with Tween-80, higher = longer survival).
Consider `CC[n+]1c(-c2ccccc2)c2cc(N)ccc2c2ccc(N)cc21`, for which the T/C (endpoint: median survival time, dose: 0.25 mg/kg/injection, vehicle: steriod suspending solution, higher = longer survival) is 92 % of control; the T/C (endpoint: median survival time, dose: 0.5 mg/kg/injection, vehicle: steriod suspending solution, higher = longer survival) was 107 % of control; the T/C (endpoint: median survival time, dose: 1.0 mg/kg/injection, vehicle: steriod suspending solution, higher = longer survival) is 100 % of control; the T/C (endpoint: median survival time, dose: 2.0 mg/kg/injection, vehicle: steriod suspending solution, higher = longer survival) is 117 % of control; the T/C (endpoint: median survival time, dose: 4.0 mg/kg/injection, vehicle: steriod suspending solution, higher = longer survival) is 96 % of control; the T/C (endpoint: median tumor weight (est.), dose: 0.25 mg/kg/injection, vehicle: steriod suspending solution, higher = larger tumour) is 90 % of control. Further, the T/C is 95 % of control (endpoint: median tumor weight (est.), dose: 0.5 mg/kg/injection, vehicle: steriod suspending solution, higher = larger tumour); 90 % of control (endpoint: median tumor weight (est.), dose: 1.0 mg/kg/injection, vehicle: steriod suspending solution, higher = larger tumour); 77 % of control (endpoint: median tumor weight (est.), dose: 2.0 mg/kg/injection, vehicle: steriod suspending solution, higher = larger tumour); 73 % of control (endpoint: median tumor weight (est.), dose: 4.0 mg/kg/injection, vehicle: steriod suspending solution, higher = larger tumour).
As for `O=C1C=C(SCCO)C(=O)c2ccccc21`, the T/C reads like this: (endpoint: mean tumor weight (est.), dose: 0.75 mg/kg/injection, vehicle: other, higher = larger tumour) 52 % of control; (endpoint: mean tumor weight (est.), dose: 1.5 mg/kg/injection, vehicle: other, higher = larger tumour) 40 % of control; (endpoint: mean tumor weight (est.), dose: 3.0 mg/kg/injection, vehicle: other, higher = larger tumour) 18 % of control; (endpoint: median survival time, dose: 0.75 mg/kg/injection, vehicle: other, higher = longer survival) 100 % of control; (endpoint: median survival time, dose: 1.5 mg/kg/injection, vehicle: other, higher = longer survival) 92 % of control; (endpoint: median survival time, dose: 3.0 mg/kg/injection, vehicle: other, higher = longer survival) 100 % of control.
As to `Cc1c2oc3c(C)ccc(C(=O)N[C@@H]4C(=O)N[C@H](C(C)C)C(=O)N5CCC[C@H]5C(=O)N(C)CC(=O)N(C)[C@@H](C(C)C)C(=O)O[C@H]4C)c3nc-2c(C(=O)N[C@@H]2C(=O)N[C@H](C(C)C)C(=O)N3CCC[C@H]3C(=O)N(C)CC(=O)N(C)[C@@H](C(C)C)C(=O)O[C@H]2C)c(N)c1=O` (I: [aThr][dV]P[Sar][NMeV] / II: [aThr][dV]P[Sar][NMeV]; ester I:1-I:C, II:1-II:C; linker I:N-II:N via Actinocin(9to1)), the T/C runs as follows: (endpoint: median survival time, dose: 0.01 mg/kg/injection, vehicle: water, higher = longer survival) 99 % of control and 110 % of control and 112 % of control; (endpoint: median survival time, dose: 0.02 mg/kg/injection, vehicle: water, higher = longer survival) 93 % of control and 94 % of control and 110 % of control; (endpoint: median survival time, dose: 0.04 mg/kg/injection, vehicle: water, higher = longer survival) 110 % of control; (endpoint: median survival time, dose: 0.05 mg/kg/injection, vehicle: water, higher = longer survival) 99 % of control and 100 % of control.
`Nc1nc(=S)c2ncn(C3CC(O)C(CO)O3)c2[nH]1` (centres undefined): the T/C (endpoint: mean tumor weight, dose: 3.12 mg/kg/injection, vehicle: other, higher = larger tumour) is 120 % of control; the T/C (endpoint: mean tumor weight, dose: 6.25 mg/kg/injection, vehicle: other, higher = larger tumour) was 112 % of control; the T/C (endpoint: mean tumor weight, dose: 12.5 mg/kg/injection, vehicle: other, higher = larger tumour) was 120 % of control; the T/C (endpoint: mean tumor weight, dose: 25.0 mg/kg/injection, vehicle: other, higher = larger tumour) is 69 % of control; the T/C (endpoint: median survival time, dose: 1.56 mg/kg/injection, vehicle: other, higher = longer survival) was 112 % of control; the T/C (endpoint: median survival time, dose: 3.12 mg/kg/injection, vehicle: other, higher = longer survival) is 95 % of control. The T/C (endpoint: median survival time, dose: 6.25 mg/kg/injection, vehicle: other, higher = longer survival) is 102 % of control; the T/C (endpoint: median survival time, dose: 12.5 mg/kg/injection, vehicle: other, higher = longer survival) was 112 % of control; the T/C (endpoint: median survival time, dose: 25.0 mg/kg/injection, vehicle: other, higher = longer survival) was 112 % of control.
Turning to `Cc1c(N)nc(C(CC(N)=O)NCC(N)C(N)=O)nc1C(=O)NC(C(=O)NC(C)C(O)C(C)C(=O)NC(C(=O)NCCc1nc(-c2nc(C(=O)NCCCCN=C(N)N)cs2)cs1)C(C)O)C(OC1OC(CO)C(O)C(O)C1OC1OC(CO)C(O)C(OC(N)=O)C1O)c1cnc[nH]1` (centres undefined), the T/C by setting is: (endpoint: median survival time, dose: 3.9 mg/kg/injection, vehicle: saline, higher = longer survival) 122 % of control; (endpoint: median survival time, dose: 6.5 mg/kg/injection, vehicle: saline, higher = longer survival) 112 % of control; (endpoint: median survival time, dose: 10.8 mg/kg/injection, vehicle: saline, higher = longer survival) 150 % of control; (endpoint: median survival time, dose: 18.0 mg/kg/injection, vehicle: saline, higher = longer survival) 170 % of control; (endpoint: median survival time, dose: 30.0 mg/kg/injection, vehicle: saline, higher = longer survival) 168 % of control.
For `O=C(CCCl)N1CCN(C(=O)CCCl)c2ccccc21`, the T/C (endpoint: mean tumor weight (est.), dose: 150.0 mg/kg/injection, vehicle: saline with Tween-80, higher = larger tumour) was 83 % of control; the T/C (endpoint: mean tumor weight (est.), dose: 300.0 mg/kg/injection, vehicle: saline with Tween-80, higher = larger tumour) is 82 % of control; the T/C (endpoint: median survival time, dose: 150.0 mg/kg/injection, vehicle: saline with Tween-80, higher = longer survival) was 108 % of control; the T/C (endpoint: median survival time, dose: 300.0 mg/kg/injection, vehicle: saline with Tween-80, higher = longer survival) is 93 % of control.
